Test results from patent US11286239B2, “Angiotensin II receptor 2 antagonist salt form and crystalline form, and preparation method therefor” (SHANDONG DANHONG PHARMACEUTICAL CO., LTD., priority 2018, dated 2022).

What was measured:
[1] = Hygroscopicity study by dynamic vapor sorption (DVS); assay type: physicochemical; conditions: 25° C. and 80% RH
Experimental: Test conditions: a sample (10-15 mg) is placed in DVS sample tray for testing.
Balance: dm/dt=0.01%/min (shortest: 10 min, longest: 180 min)
Drying: drying for 120 min at 0% RH
RH (%) test gradient: 10%
RH (%) test gradient range: 0%-90%-0%
The hygroscopicity property is evaluated and classified as follows: […]

Solid stability test = assay type: physicochemical
Experimental: […] The samples placed at the conditions of high temperature (60° C.) and high humidity (92.5% humidity, room temperature) were taken to test XRPD and purity on the 5th day and 10 days. Samples placed at high temperature and high humidity (40° C./75% humidity, 60° C./75% humidity) were taken to test XRPD and purity on the 10th day, 1 month, 2 months, and 3 months. The samples placed under light irradiation conditions were taken for testing when a total illuminance reached 1.2×10^6 Lux·hr. The test results are compared with the beginning test results of 0 day.

[2] = 40° C., relative humidity 75%, open, 1M
[3] = 40° C., relative humidity 75%, open, 2M
[4] = 40° C., relative humidity 75%, open, 3M
[5] = 40° C., relative humidity 75%, open, 10 days
[6] = 60° C., relative humidity 75%, open, 1M
[7] = 60° C., relative humidity 75%, open, 2M
[8] = 60° C., relative humidity 75%, open, 3M
[9] = 60° C., relative humidity 75%, open, 10 days
[10] = High humidity (room temperature/relative humidity 92.5%, open), 5 days
[11] = High humidity (room temperature/relative humidity 92.5%, open), 10 days
[12] = High temperature (60° C., open), 5 days
[13] = High temperature (60° C., open), 10 days
[14] = Light irradiation (total illuminance of 1.2 × 10^6 Lux·hr/near ultraviolet 200 w·hr/m^2, open)

Question: Which results are given for `COc1ccc2c(c1OCc1ccccc1)C[C@@H](C(=O)O)N(C(=O)[C@@H](OC1CCCC1)c1ccccc1)C2` [crystalline form “B”]?
Answer: Classification of hygroscopicity [1]: almost no hygroscopicity; ΔW, weight gain caused by hygroscopicity [1]: 0.05327%; Crystalline form (XRPD) (Solid stability test; 0 day): Crystalline form “B”; Purity (Solid stability test; 0 day): 99.89%; Crystalline form (XRPD) (Solid stability test; [2]): Crystalline form “B”; Purity (Solid stability test; [2]): 99.92%; Crystalline form (XRPD) (Solid stability test; [3]): Crystalline form “B”; Purity (Solid stability test; [3]): 99.87%; Crystalline form (XRPD) (Solid stability test; [4]): Crystalline form “B”; Purity (Solid stability test; [4]): 99.87%; Crystalline form (XRPD) (Solid stability test; [5]): Crystalline form “B”; Purity (Solid stability test; [5]): 99.93%; Crystalline form (XRPD) (Solid stability test; [6]): Crystalline form “B”; Purity (Solid stability test; [6]): 99.90%; Crystalline form (XRPD) (Solid stability test; [7]): Crystalline form “B”; Purity (Solid stability test; [7]): 99.78%; Crystalline form (XRPD) (Solid stability test; [8]): Crystalline form “B”; Purity (Solid stability test; [8]): 99.80%; Crystalline form (XRPD) (Solid stability test; [9]): Crystalline form “B”; Purity (Solid stability test; [9]): 99.92%; Crystalline form (XRPD) (Solid stability test; [10]): Crystalline form “B”; Purity (Solid stability test; [10]): 99.93%; Crystalline form (XRPD) (Solid stability test; [11]): Crystalline form “B”; Purity (Solid stability test; [11]): 99.92%; Crystalline form (XRPD) (Solid stability test; [12]): Crystalline form “B”; Purity (Solid stability test; [12]): 99.93%; Crystalline form (XRPD) (Solid stability test; [13]): Crystalline form “B”; Purity (Solid stability test; [13]): 99.93%; Crystalline form (XRPD) (Solid stability test; [14]): Crystalline form “B”; Purity (Solid stability test; [14]): 99.96%; Solid stability conclusion (Solid stability test; high temperature, high humidity, strong light and accelerated conditions): good crystal stability and good chemical stability
